According to ChEMBL document CHEMBL3885881, “DrugMatrix”:

Species: Rattus norvegicus
Assay: DrugMatrix - Regimen: Daily Repeat
Assay type: toxicity, organism-based, Sprague-Dawley
Parameters: regimen Daily Repeat, gender Male, age 6-8 weeks
Conditions: in vivo, po, route oral GAVAGE, vehicle 100 % WATER; for BASOPHIL / EOSINOPHIL / ERYTHROCYTE COUNT / HEMATOCRIT / HEMOGLOBIN / LEUKOCYTE COUNT / LYMPHOCYTE / MEAN CORPUSCULAR HEMOGLOBIN / MEAN CORPUSCULAR HEMOGLOBIN CONCENTRATION / MEAN CORPUSCULAR VOLUME / MONOCYTE / NEUTROPHIL / PLATELET COUNT: tissue Blood; for ALANINE AMINOTRANSFERASE / ALBUMIN / ALKALINE PHOSPHATASE / ASPARTATE AMINOTRANSFERASE / BLOOD UREA NITROGEN / CHLORIDE / CHOLESTEROL / CREATINE PHOSPHOKINASE / CREATININE / GLUCOSE / PHOSPHORUS / POTASSIUM / SODIUM / TOTAL BILIRUBIN / TOTAL PROTEIN: tissue Plasma
[1] = 0 mg/kg, 72 h, dose level Control, time 3 day
[2] = 0 mg/kg, 120 h, dose level Control, time 5 day
[3] = 10 mg/kg, 72 h, dose level Low, time 3 day
[4] = 10 mg/kg, 120 h, dose level Low, time 5 day
[5] = 1500 mg/kg, 72 h, dose level High, time 3 day
[6] = 1500 mg/kg, 120 h, dose level High, time 5 day

O=C(O)c1cc(=O)c2c(OCC(O)COc3cccc4oc(C(=O)O)cc(=O)c34)cccc2o1 [CROMOLYN]
BASOPHIL [1]: 0% | EOSINOPHIL [1]: 0.33% | ERYTHROCYTE COUNT [1]: 5.88 x10E6/uL | HEMATOCRIT [1]: 36.47% | HEMOGLOBIN [1]: 14.2 G/DL | LEUKOCYTE COUNT [1]: 9.28 x10E3/uL | LYMPHOCYTE [1]: 82.33% | MEAN CORPUSCULAR HEMOGLOBIN [1]: 24.2 pg | MEAN CORPUSCULAR HEMOGLOBIN CONCENTRATION [1]: 38.97 G/DL | MEAN CORPUSCULAR VOLUME [1]: 62.12 fL | MONOCYTE [1]: 2.33% | NEUTROPHIL [1]: 15% | PLATELET COUNT [1]: 1114 x10E3/uL | ALANINE AMINOTRANSFERASE [1]: 41.17 u/L | ALBUMIN [1]: 3.95 G/DL | ALKALINE PHOSPHATASE [1]: 382.5 u/L | ASPARTATE AMINOTRANSFERASE [1]: 67.33 u/L | BLOOD UREA NITROGEN [1]: 15.5 mg/dL | CHLORIDE [1]: 106.33 MEQ/L | CHOLESTEROL [1]: 77.67 mg/dL | CREATINE PHOSPHOKINASE [1]: 123.33 u/L | CREATININE [1]: 0.62 mg/dL | GLUCOSE [1]: 185.67 mg/dL | PHOSPHORUS [1]: 10.2 mg/dL | POTASSIUM [1]: 6.72 MEQ/L | SODIUM [1]: 149.67 MEQ/L | TOTAL BILIRUBIN [1]: 0.97 mg/dL | TOTAL PROTEIN [1]: 6.58 G/DL | BASOPHIL [2]: 0% | EOSINOPHIL [2]: 0% | ERYTHROCYTE COUNT [2]: 5.99 x10E6/uL | HEMATOCRIT [2]: 36.88% | HEMOGLOBIN [2]: 14.77 G/DL | LEUKOCYTE COUNT [2]: 11.35 x10E3/uL | LYMPHOCYTE [2]: 85.5% | MEAN CORPUSCULAR HEMOGLOBIN [2]: 24.7 pg | MEAN CORPUSCULAR HEMOGLOBIN CONCENTRATION [2]: 40.07 G/DL | MEAN CORPUSCULAR VOLUME [2]: 61.58 fL | MONOCYTE [2]: 1.83% | NEUTROPHIL [2]: 12.67% | PLATELET COUNT [2]: 979.67 x10E3/uL | ALANINE AMINOTRANSFERASE [2]: 36.5 u/L | ALBUMIN [2]: 3.63 G/DL | ALKALINE PHOSPHATASE [2]: 303.5 u/L | ASPARTATE AMINOTRANSFERASE [2]: 61 u/L | BLOOD UREA NITROGEN [2]: 16.5 mg/dL | CHLORIDE [2]: 106.17 MEQ/L | CHOLESTEROL [2]: 60.5 mg/dL | CREATINE PHOSPHOKINASE [2]: 154.83 u/L | CREATININE [2]: 0.6 mg/dL | GLUCOSE [2]: 201 mg/dL | PHOSPHORUS [2]: 10.1 mg/dL | POTASSIUM [2]: 6.85 MEQ/L | SODIUM [2]: 148.17 MEQ/L | TOTAL BILIRUBIN [2]: 0.58 mg/dL | TOTAL PROTEIN [2]: 5.9 G/DL | BASOPHIL [3]: 0% | EOSINOPHIL [3]: 0% | ERYTHROCYTE COUNT [3]: 5.62 x10E6/uL | HEMATOCRIT [3]: 34.93% | HEMOGLOBIN [3]: 13.6 G/DL | LEUKOCYTE COUNT [3]: 10.7 x10E3/uL | LYMPHOCYTE [3]: 79% | MEAN CORPUSCULAR HEMOGLOBIN [3]: 24.23 pg | MEAN CORPUSCULAR HEMOGLOBIN CONCENTRATION [3]: 38.93 G/DL | MEAN CORPUSCULAR VOLUME [3]: 62.2 fL | MONOCYTE [3]: 2.33% | NEUTROPHIL [3]: 18.67% | PLATELET COUNT [3]: 1007 x10E3/uL | ALANINE AMINOTRANSFERASE [3]: 38.67 u/L | ALBUMIN [3]: 3.87 G/DL | ALKALINE PHOSPHATASE [3]: 381.33 u/L | ASPARTATE AMINOTRANSFERASE [3]: 60.67 u/L | BLOOD UREA NITROGEN [3]: 13 mg/dL | CHLORIDE [3]: 107.33 MEQ/L | CHOLESTEROL [3]: 71.67 mg/dL | CREATINE PHOSPHOKINASE [3]: 119.67 u/L | CREATININE [3]: 0.6 mg/dL | GLUCOSE [3]: 182 mg/dL | PHOSPHORUS [3]: 10.4 mg/dL | POTASSIUM [3]: 6.6 MEQ/L | SODIUM [3]: 150.33 MEQ/L | TOTAL BILIRUBIN [3]: 0.8 mg/dL | TOTAL PROTEIN [3]: 6.33 G/DL | BASOPHIL [4]: 0% | EOSINOPHIL [4]: 0.33% | ERYTHROCYTE COUNT [4]: 5.82 x10E6/uL | HEMATOCRIT [4]: 35.37% | HEMOGLOBIN [4]: 14.43 G/DL | LEUKOCYTE COUNT [4]: 10.43 x10E3/uL | LYMPHOCYTE [4]: 85% | MEAN CORPUSCULAR HEMOGLOBIN [4]: 24.83 pg | MEAN CORPUSCULAR HEMOGLOBIN CONCENTRATION [4]: 40.83 G/DL | MEAN CORPUSCULAR VOLUME [4]: 60.73 fL | MONOCYTE [4]: 2.33% | NEUTROPHIL [4]: 12.33% | PLATELET COUNT [4]: 932 x10E3/uL | ALANINE AMINOTRANSFERASE [4]: 38 u/L | ALBUMIN [4]: 3.73 G/DL | ALKALINE PHOSPHATASE [4]: 274 u/L | ASPARTATE AMINOTRANSFERASE [4]: 62.33 u/L | BLOOD UREA NITROGEN [4]: 13.33 mg/dL | CHLORIDE [4]: 109 MEQ/L | CHOLESTEROL [4]: 60.33 mg/dL | CREATINE PHOSPHOKINASE [4]: 101.67 u/L | CREATININE [4]: 0.73 mg/dL | GLUCOSE [4]: 167.33 mg/dL | PHOSPHORUS [4]: 9.73 mg/dL | POTASSIUM [4]: 6.7 MEQ/L | SODIUM [4]: 151.33 MEQ/L | TOTAL BILIRUBIN [4]: 0.67 mg/dL | TOTAL PROTEIN [4]: 5.87 G/DL | BASOPHIL [5]: 0% | EOSINOPHIL [5]: 0.33% | ERYTHROCYTE COUNT [5]: 5.31 x10E6/uL | HEMATOCRIT [5]: 33.07% | HEMOGLOBIN [5]: 13.3 G/DL | LEUKOCYTE COUNT [5]: 10.3 x10E3/uL | LYMPHOCYTE [5]: 79.67% | MEAN CORPUSCULAR HEMOGLOBIN [5]: 25.1 pg | MEAN CORPUSCULAR HEMOGLOBIN CONCENTRATION [5]: 40.3 G/DL | MEAN CORPUSCULAR VOLUME [5]: 62.23 fL | MONOCYTE [5]: 1% | NEUTROPHIL [5]: 18.67% | PLATELET COUNT [5]: 969.67 x10E3/uL | ALANINE AMINOTRANSFERASE [5]: 36 u/L | ALBUMIN [5]: 3.9 G/DL | ALKALINE PHOSPHATASE [5]: 383.5 u/L | ASPARTATE AMINOTRANSFERASE [5]: 60 u/L | BLOOD UREA NITROGEN [5]: 13 mg/dL | CHLORIDE [5]: 106 MEQ/L | CHOLESTEROL [5]: 72 mg/dL | CREATINE PHOSPHOKINASE [5]: 122 u/L | CREATININE [5]: 0.5 mg/dL | GLUCOSE [5]: 179 mg/dL | PHOSPHORUS [5]: 9.8 mg/dL | POTASSIUM [5]: 6.7 MEQ/L | SODIUM [5]: 150 MEQ/L | TOTAL BILIRUBIN [5]: 0.5 mg/dL | TOTAL PROTEIN [5]: 6.25 G/DL | BASOPHIL [6]: 0% | EOSINOPHIL [6]: 0% | ERYTHROCYTE COUNT [6]: 6.38 x10E6/uL | HEMATOCRIT [6]: 37.77% | HEMOGLOBIN [6]: 14.93 G/DL | LEUKOCYTE COUNT [6]: 13.03 x10E3/uL | LYMPHOCYTE [6]: 83.33% | MEAN CORPUSCULAR HEMOGLOBIN [6]: 23.43 pg | MEAN CORPUSCULAR HEMOGLOBIN CONCENTRATION [6]: 39.57 G/DL | MEAN CORPUSCULAR VOLUME [6]: 59.27 fL | MONOCYTE [6]: 0.67% | NEUTROPHIL [6]: 16% | PLATELET COUNT [6]: 1070.67 x10E3/uL | ALANINE AMINOTRANSFERASE [6]: 36.33 u/L | ALBUMIN [6]: 3.77 G/DL | ALKALINE PHOSPHATASE [6]: 352 u/L | ASPARTATE AMINOTRANSFERASE [6]: 63 u/L | BLOOD UREA NITROGEN [6]: 15.33 mg/dL | CHLORIDE [6]: 106 MEQ/L | CHOLESTEROL [6]: 50.67 mg/dL | CREATINE PHOSPHOKINASE [6]: 125.33 u/L | CREATININE [6]: 0.63 mg/dL | GLUCOSE [6]: 177.67 mg/dL | PHOSPHORUS [6]: 10.5 mg/dL | POTASSIUM [6]: 7.1 MEQ/L | SODIUM [6]: 150 MEQ/L | TOTAL BILIRUBIN [6]: 0.57 mg/dL | TOTAL PROTEIN [6]: 6.13 G/DL
